Data as given in publication PMC9065678, “BI 1015550 is a PDE4B Inhibitor and a Clinical Drug Candidate for the Oral Treatment of Idiopathic Pulmonary Fibrosis” (Frontiers in Pharmacology, 2022).

Columns and labels:
[1] = system: LPS-stimulated IL-6 release; assay: LPS-stimulated IL-6 release in rat whole blood; format: cell-based; conditions: high concentrations
Procedure: Heparinized whole blood was collected from the Aorta abdominalis of WI (Han) male rats (Charles River Laboratories, Sulzfeld, Germany) and from healthy male human donors, and treated with 1 µL (rat) or 2.5 µL (human) of BI 1015550 or vehicle [final DMSO concentration 0.5% (v/v)]. Final assay volumes were 200 μL (rat) and 500 μL (human). After incubation for 30 min at 37°C, 95% humidity, and 5% CO2, cultures were treated with LPS [final concentration 10 µg/mL (rat), 0.1 µg/mL (human)] or saline. After 7 h, plates were centrifuged at 3.200 × g at 4°C for 10 min and plasma was used for cytokine measurement. Meso Scale Discovery (MSD) (Rockville, MD, United States) rat and human pro-inflammatory panels were used for detection of TNF-α and IL-6 in rat plasma [diluted 1:2 (v/v)]) and human plasma [negative control undiluted, other samples diluted 1:200 (v/v)] according to the manufacturer’s instructions.

PDE4A = biological target: T1, PDE4A (Homo sapiens, UniProt P27815); assay: Recombinant PDE activity, scintillation proximity assay: PDE4A; format: biochemical; conditions: substrate [3H]cAMP, means from n independent experiments
T1 construct: PDE4A (NG_029594, AA 156–886); made in house; host or cells: SF9 insect cells (baculovirus, Bac-To-Bac, pFastbac)
Procedure: (§1) For the preparation of human recombinant PDEs of interest, the Bac-To-Bac baculoviral expression system from Invitrogen (Carlsbad, CA, United States) was used according to the instruction manual. […] The plasmids were transformed into DH10Bac bacteria, SF9 insect cells were transfected with the bacmid DNA, and the resulting baculoviruses were stored and used for further rounds of infections. For protein production, SF9 cells were infected until a cytopathic effect was visible (after about 72 h), the SF9 cells were harvested and broken up by 3 freeze/thaw cycles, and by shearing 10 times through a 0.1 mm cannula using a syringe. […] The Phosphodiesterase Scintillation Proximity Assays (TRKQ7090 for [^3H]cAMP, GE Healthcare Europe GmbH, Chalfont St Giles, United Kingdom, and TRKQ7100 for [^3H]cGMP, Perkin Elmer, Waltham, MA, United States) were performed essentially according to the instruction manual. […] Assay solutions containing recombinant baculoviral-expressed PDE (to give an activity of 5.000–20.000 cpm corresponding to 5–20% of total activity added), 50 mmol/L Tris/HCl pH 7.5, 8.3 mmol/L MgCl2, 1.7 mmol/L EGTA, and 10 µL radiolabeled substrate (0.05 µCi in H2O) were incubated for 1 h at 30°C (final volume 100 μL).

PDE3A = biological target: T2, PDE3A (Homo sapiens, UniProt Q14432); assay: Recombinant PDE activity, scintillation proximity assay: PDE3A; format: biochemical; conditions: calculated IC50
T2 construct: made in house; host or cells: SF9 insect cells (baculovirus, Bac-To-Bac, pFastbac)
From the text: (§2) For the preparation of human recombinant PDEs of interest, the Bac-To-Bac baculoviral expression system from Invitrogen (Carlsbad, CA, United States) was used according to the instruction manual. In short, the full-length open reading frames of PDE1C (National Center for Biotechnology Information Gene-Ref-Seq identifier NG_051183), PDE3A (NG_030033), PDE4A (NG_029594, AA 156–886), PDE4C (NG_029629), PDE7A (NG_029614), and PDE9A (NG_047067) were cloned into the plasmid vector pFastbac. For PDE4B and PDE4D, active site fragments were used (PDE4B NG_029038: AA 152–484, PDE4D NG_027957, AA 79–438). The plasmids were transformed into DH10Bac bacteria, SF9 insect cells were transfected with the bacmid DNA, and the resulting baculoviruses were stored and used for further rounds of infections. […] The protein content was measured and an equal volume of 87% (v/v) glycerol was added prior to freezing at −20°C. […] The reaction was stopped by addition of 50 µL of yttrium silicate scintillation proximity assay beads (17.8 mg/mL, 18 mM zinc sulfate in H2O) and the amount of produced [^3H]AMP/[^3H]GMP associated was determined using a Wallac Microbeta scintillation counter. […]

PDE4D = biological target: T3, PDE4D (Homo sapiens, UniProt Q08499); assay: Recombinant PDE activity, scintillation proximity assay: PDE4D; format: biochemical; conditions: human recombinant active site fragment, substrate [3H]cAMP, means from n independent experiments; read-out: IC50 PDE4D2
T3 construct: PDE4D NG_027957, AA 79–438; made in house; host or cells: SF9 insect cells (baculovirus, Bac-To-Bac, pFastbac)
Procedure: as §1

PDE9A = biological target: T4, PDE9A (Homo sapiens, UniProt O76083); assay: Recombinant PDE activity, scintillation proximity assay: PDE9A; format: biochemical; conditions: substrate cGMP
T4 construct: the full-length open reading frames of PDE1C; made in house; host or cells: SF9 insect cells (baculovirus, Bac-To-Bac, pFastbac)
From the text: as §2

T4 sequence (O76083 whole entry): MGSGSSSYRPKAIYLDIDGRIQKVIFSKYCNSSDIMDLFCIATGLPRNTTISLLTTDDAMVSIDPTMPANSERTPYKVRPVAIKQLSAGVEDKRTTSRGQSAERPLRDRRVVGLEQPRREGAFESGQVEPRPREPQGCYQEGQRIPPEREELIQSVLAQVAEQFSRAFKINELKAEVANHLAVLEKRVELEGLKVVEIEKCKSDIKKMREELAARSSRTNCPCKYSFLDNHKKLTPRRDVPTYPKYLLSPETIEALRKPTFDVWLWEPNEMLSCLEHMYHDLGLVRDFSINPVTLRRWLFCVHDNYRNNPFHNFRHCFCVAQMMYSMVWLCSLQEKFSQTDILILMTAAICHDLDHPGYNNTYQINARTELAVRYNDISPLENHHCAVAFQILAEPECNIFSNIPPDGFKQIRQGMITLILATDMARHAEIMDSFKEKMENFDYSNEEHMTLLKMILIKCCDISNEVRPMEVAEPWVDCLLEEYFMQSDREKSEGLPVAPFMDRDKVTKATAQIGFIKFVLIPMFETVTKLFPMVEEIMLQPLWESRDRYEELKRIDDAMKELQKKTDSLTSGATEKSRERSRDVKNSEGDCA
T3 sequence (Q08499 381-740): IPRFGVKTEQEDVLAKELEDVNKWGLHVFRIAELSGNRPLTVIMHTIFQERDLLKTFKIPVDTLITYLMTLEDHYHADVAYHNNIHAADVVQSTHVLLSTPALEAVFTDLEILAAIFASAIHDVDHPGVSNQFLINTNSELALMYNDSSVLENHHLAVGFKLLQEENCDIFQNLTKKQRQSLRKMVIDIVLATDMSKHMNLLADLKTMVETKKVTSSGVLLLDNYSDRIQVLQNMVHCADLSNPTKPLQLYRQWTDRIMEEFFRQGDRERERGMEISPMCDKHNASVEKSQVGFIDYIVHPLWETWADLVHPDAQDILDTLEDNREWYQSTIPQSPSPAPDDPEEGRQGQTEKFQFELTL
T2 sequence (Q14432 whole entry): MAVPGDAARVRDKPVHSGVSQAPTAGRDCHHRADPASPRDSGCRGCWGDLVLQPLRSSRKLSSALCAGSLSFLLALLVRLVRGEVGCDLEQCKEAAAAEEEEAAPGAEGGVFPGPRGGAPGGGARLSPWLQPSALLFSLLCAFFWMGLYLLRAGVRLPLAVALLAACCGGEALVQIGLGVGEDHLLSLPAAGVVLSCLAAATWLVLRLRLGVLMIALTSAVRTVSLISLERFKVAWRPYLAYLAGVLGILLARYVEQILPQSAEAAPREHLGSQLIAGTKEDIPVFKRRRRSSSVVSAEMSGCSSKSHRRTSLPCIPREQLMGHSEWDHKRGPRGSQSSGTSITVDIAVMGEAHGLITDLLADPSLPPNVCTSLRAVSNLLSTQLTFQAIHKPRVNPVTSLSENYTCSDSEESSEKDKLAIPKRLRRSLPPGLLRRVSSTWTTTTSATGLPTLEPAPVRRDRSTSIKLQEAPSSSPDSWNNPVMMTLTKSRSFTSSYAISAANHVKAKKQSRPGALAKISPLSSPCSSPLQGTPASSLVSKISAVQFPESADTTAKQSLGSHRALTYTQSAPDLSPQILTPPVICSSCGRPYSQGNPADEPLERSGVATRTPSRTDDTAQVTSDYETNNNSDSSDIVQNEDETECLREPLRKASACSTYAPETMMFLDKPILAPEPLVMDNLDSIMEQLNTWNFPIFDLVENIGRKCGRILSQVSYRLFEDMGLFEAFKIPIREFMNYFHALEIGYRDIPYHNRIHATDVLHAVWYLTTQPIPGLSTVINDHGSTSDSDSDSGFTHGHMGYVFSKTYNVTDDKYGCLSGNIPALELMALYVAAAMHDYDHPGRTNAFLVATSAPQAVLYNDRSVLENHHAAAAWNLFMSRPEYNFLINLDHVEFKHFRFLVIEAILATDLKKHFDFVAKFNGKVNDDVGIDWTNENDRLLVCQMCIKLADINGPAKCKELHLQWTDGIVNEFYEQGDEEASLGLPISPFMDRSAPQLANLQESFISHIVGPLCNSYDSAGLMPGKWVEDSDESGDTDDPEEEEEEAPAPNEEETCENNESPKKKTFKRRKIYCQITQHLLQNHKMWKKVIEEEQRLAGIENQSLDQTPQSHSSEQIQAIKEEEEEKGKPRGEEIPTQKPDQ
T1 sequence (P27815 156-886): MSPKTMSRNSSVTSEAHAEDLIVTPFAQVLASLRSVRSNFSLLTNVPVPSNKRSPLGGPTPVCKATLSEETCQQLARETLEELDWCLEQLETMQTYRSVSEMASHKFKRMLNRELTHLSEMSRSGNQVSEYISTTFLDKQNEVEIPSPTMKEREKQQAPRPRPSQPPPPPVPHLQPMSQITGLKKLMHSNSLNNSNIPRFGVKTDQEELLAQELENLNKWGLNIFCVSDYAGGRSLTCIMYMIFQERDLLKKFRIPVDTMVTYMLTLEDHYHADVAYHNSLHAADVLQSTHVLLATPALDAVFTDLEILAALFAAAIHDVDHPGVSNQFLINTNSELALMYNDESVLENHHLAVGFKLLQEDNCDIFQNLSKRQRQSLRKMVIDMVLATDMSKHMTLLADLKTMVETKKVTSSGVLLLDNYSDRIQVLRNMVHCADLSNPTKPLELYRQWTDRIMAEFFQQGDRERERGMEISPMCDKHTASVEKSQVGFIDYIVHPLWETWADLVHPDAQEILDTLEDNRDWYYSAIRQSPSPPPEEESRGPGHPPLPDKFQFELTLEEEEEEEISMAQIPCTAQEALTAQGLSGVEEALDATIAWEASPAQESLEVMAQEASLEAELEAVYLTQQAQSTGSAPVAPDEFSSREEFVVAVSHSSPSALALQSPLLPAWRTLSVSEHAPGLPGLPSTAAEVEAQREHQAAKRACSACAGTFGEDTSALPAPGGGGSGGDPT

- IC50 (PDE4A): 248 nM
- IC50 (PDE3A): 120 µM
- IC50 (PDE4D): 91 nM
- IC50 (PDE9A): > 100 µM
SMILES: [O-][S+]1CCc2nc(N3CCC(c4ncc(Cl)cn4)CC3)nc(NC3(CO)CCC3)c21 (centres unmarked) [BI 1015550]
- Increase of IL-6 compared with LPS-treated samples without PDE4 inhibitor [1]: fourfold
